# Results taken from patent US11021470B2, “2-substituted quinazoline compounds comprising a substituted heterocyclic group and methods of use thereof” (Araxes Pharma LLC, priority 2015, dated 2021).
# Molecular target: T1, KRAS G12C 1-169, his-tagged protein, GDP-loaded (Homo sapiens, UniProt P01116, G12C)
# T1 construct: KRAS G12C 1-169, his-tagged protein, GDP-loaded
# Assay: KRAS G12C covalent binding (% modification) by mass spectrometry, ten or three minute incubation
# Conditions: covalent binding to KRAS G12C after a ten minute incubation period
# Experimental: Test compounds were prepared as 10 mM stock solutions in DMSO (Fisher cat #BP-231-100). KRAS G12C 1-169, his-tagged protein, GDP-loaded was diluted to […] in buffer (20 mM Hepes, 150 mM NaCl, 1 mM MgCl2). Compounds were tested for activity as follows:
# Compounds were diluted to 50× final test concentration in DMSO in 96-well storage plates. Compound stock solutions were vortexed before use and observed carefully for any sign of precipitation. Dilutions were as follow: • For 100 μM final compound concentration, compounds were diluted to 5000 μM (5 μl 10 mM compound stock+5 μl DMSO and mixed well by pipetting. • For 30 μM final compound concentration, compounds were diluted to 1500 μM (3 μl 10 mM compound stock+17 μl DMSO) and mixed well by pipetting. • For 10 μM final compound concentration, compounds were diluted to 500 μM (2 μl 10 mM compound stock+38 μl DMSO) and mixed well by pipetting. 49 μl of the stock protein solution was added to each well of a 96-well PCR plate (Fisher cat #1423027). 1 μl of the diluted 50× compounds were added to appropriate wells in the PCR plate using 12-channel pipettor. Reactions were mixed carefully and thoroughly by pipetting up/down with a 200 μl multi-channel pipettor. […] 5 μl of 2% formic acid (Fisher cat #A117) in DI H2O was then added to each well followed by mixing with a pipette. The plate was then resealed with aluminum seal and stored on dry ice until analyzed as described below.
# The above described assays were analyzed by mass spectrometry according to one of the following two procedures:
# The MS instrument is set to positive polarity, 2 GHz resolution, and low mass (1700) mode and allowed to equilibrate for 30 minutes. The instrument is then calibrated, switched to acquisition mode and the appropriate method loaded.
# After another 30 minute equilibration time, a blank batch (i.e., buffer) is run to ensure equipment is operating properly. The samples are thawed at 37° C. for 10 minutes, briefly centrifuged, and transfer to the bench top. Wells A1 and H12 are spiked with 1 μL 500 μM internal standard peptide, and the plates centrifuged at 2000×g for 5 minutes. The method is then run and masses of each individual well recorded.
# The masses (for which integration data is desired) for each well are pasted into the platemap and exported from the analysis. Masses for the internal standards are exported as well. The data at 50 ppm is extracted for the +19 charge state, and identity of well A1 is assigned using the internal standard spike and integrated. Peak data is exported as a TOF list and the above steps are repeated individually, for the +20, 21, 22, 23, 24, and 25 charge states.
# The masses and peak intensities of KRAS G12C protein species were measured using a Dionex RSLCnano system (Thermo Scientific) connected to a Q Exactive Plus mass spectrometer (Thermo Scientific).
# […] of sample was each loaded onto a Aeris™ 3.6 μm WIDEPORE C4 200 Å, LC Column 50×2.1 mm column maintained at 40° C. at a flow rate of 600 μl min^−1 with […] (0.1% formic acid in acetonitrile). The liquid chromatography conditions were 20% solvent B for 1 min, 20% to 60% solvent B for 1.5 min, 60% to 90% solvent for 0.5 min, 90% solvent B for 0.2 min, 90% to 20% solvent B for 0.2 min, and then equilibrated for 1.6 min before the following sample injection. The flow rate was maintained at 600 μl min^−1 throughout the sample analysis.
# The mass spectrometer was operated in profile mode at a resolution of 17500, 5 microscans, using 50 msec max injection time and an AGC target of 1e6, and a full mass range from 800-1850 m/z was recorded. The HCD trapping gas was optimized for maximum sensitivity for intact proteins. The ionization method was electrospray ionization, which used a spray voltage of 4 kV, sheath gas flow set to 50 au, auxiliary gas flow set to 10 au and sweep gas flow set to 1 au. […]
row,Compound,Binding %
1,"C=CC(=O)N1CCN(c2nc(N3CC(N(C)C)C3)nc3c(F)c(-c4c(O)cccc4F)c(Cl)cc23)C[C@H]1C (atropisomer, axis not shown) [Compound 61, 1-((R)-4-((R)-6-chloro-2-(3-(dimethylamino)azetidin-1-yl)-8-fluoro-7-(2-fluoro-6-hydroxyphenyl)quinazolin-4-yl)-2-methylpiperazin-1-yl)prop-2-en-1-one]",++ (++ indicates binding activity from 50 to 90%)

# Same assay, conditions: covalent binding to KRAS G12C, % modification after a three minute incubation period
row,Compound,Binding %
1,"C=CC(=O)N1C[C@H](C)N(c2nc(N3CC(N(C)CCCCCN=[N+]=[N-])C3)nc3c(F)c(-c4c(O)cccc4F)c(Cl)cc23)C[C@H]1C [Compound 301, 1-((2R,5S)-4-(2-(3-((5-azidopentyl)(methyl)amino)azetidin-1-yl)-6-chloro-8-fluoro-7-(2-fluoro-6-hydroxyphenyl)quinazolin-4-yl)-2,5-dimethylpiperazin-1-yl)prop-2-en-1-one]",++ (++ indicates binding activity from 50 to 90%)
2,"C=CC(=O)N1C[C@H](C)N(c2nc(OCC(C)(C)N)nc3c(F)c(-c4c(O)cccc4F)c(Cl)cc23)C[C@H]1C [Compound 274, 1-((2R,5S)-4-(2-(2-amino-2-methylpropoxy)-6-chloro-8-fluoro-7-(2-fluoro-6-hydroxyphenyl)quinazolin-4-yl)-2,5-dimethylpiperazin-1-yl)prop-2-en-1-one]",+ (+ indicates binding activity greater than 0% and up to 50%)
3,"C=CC(=O)N1C[C@H](C)N(c2nc(N3CC(N(C)C)C3)nc3c(F)c(-c4c[nH]c5cccc(F)c45)c(Cl)cc23)C[C@H]1C [Compound 290, 1-((2R,5S)-4-(6-chloro-2-(3-(dimethylamino)azetidin-1-yl)-8-fluoro-7-(4-fluoro-1H-indol-3-yl)quinazolin-4-yl)-2,5-dimethylpiperazin-1-yl)prop-2-en-1-one]",+ (+ indicates binding activity greater than 0% and up to 50%)
4,"C=CC(=O)N1C[C@H](C)N(c2nc(OCC(C)(C)C#N)nc3c(F)c(-c4c(O)cccc4F)c(Cl)cc23)C[C@H]1C (atropisomer, axis not shown) [Compound 282, 3-((4-((2S,5R)-4-acryloyl-2,5-dimethylpiperazin-1-yl)-6-chloro-8-fluoro-7-((S)-2-fluoro-6-hydroxyphenyl)quinazolin-2-yl)oxy)-2,2-dimethylpropanenitrile]",++ (++ indicates binding activity from 50 to 90%)
5,"C=CC(=O)N1C[C@H](C)N(c2nc(OCCN3CC(F)(F)C3)nc3c(F)c(-c4c(O)cccc4F)c(Cl)cc23)C[C@H]1C [Compound 89, 1-((2R,5S)-4-(6-chloro-2-(2-(3,3-difluoroazetidin-1-yl)ethoxy)-8-fluoro-7-((R)-2-fluoro-6-hydroxyphenyl)quinazolin-4-yl)-2,5-dimethylpiperazin-1-yl)prop-2-en-1-one]",+ (+ indicates binding activity greater than 0% and up to 50%)
6,"C=CC(=O)N1C[C@H](C)N(c2nc(N3CC(N(C)C)C3)nc3c(F)c(-c4c(C)ccc5[nH]nc(N)c45)c(Cl)cc23)C[C@H]1C [Compound 298, 1-((2R,5S)-4-(7-(3-amino-5-methyl-1H-indazol-4-yl)-6-chloro-2-(3-(dimethylamino)azetidin-1-yl)-8-fluoroquinazolin-4-yl)-2,5-dimethylpiperazin-1-yl)prop-2-en-1-one]",++ (++ indicates binding activity from 50 to 90%)
7,"C=CC(=O)N1C[C@H](C)N(c2nc(OCCc3ncc(C)n3C)nc3c(F)c(-c4c(O)cccc4F)c(Cl)cc23)C[C@H]1C (atropisomer, axis not shown) [Compound 289, 1-((2R,5S)-4-((S)-6-chloro-2-(2-(1,5-dimethyl-1H-imidazol-2-yl)ethoxy)-8-fluoro-7-(2-fluoro-6-hydroxyphenyl)quinazolin-4-yl)-2,5-dimethylpiperazin-1-yl)prop-2-en-1-one]",+++ (+++ indicates binding activity greater than 90%)
8,"C=CC(=O)N1C[C@H](C)N(c2nc(OCCn3ccnc3)nc3c(F)c(-c4c(O)cccc4F)c(Cl)cc23)C[C@H]1C (atropisomer, axis not shown) [Compound 249, 1-((2R,5S)-4-(2-(2-(1H-imidazol-1-yl)ethoxy)-6-chloro-8-fluoro-7-((S)-2-fluoro-6-hydroxyphenyl)quinazolin-4-yl)-2,5-dimethylpiperazin-1-yl)prop-2-en-1-one]",+++ (+++ indicates binding activity greater than 90%)
9,"C=CC(=O)N1C[C@H](C)N(c2nc(N3CC(N(C)C)C3)nc3c(F)c(-c4cc(O)cc5ccccc45)c(C(F)(F)F)cc23)C[C@H]1C [Compound 178, 1-((2R,5S)-4-(2-(3-(dimethylamino)azetidin-1-yl)-8-fluoro-7-(3-hydroxynaphthalen-1-yl)-6-(trifluoromethyl)quinazolin-4-yl)-2,5-dimethylpiperazin-1-yl)prop-2-en-1-one]",+++ (+++ indicates binding activity greater than 90%)
10,"C=CC(=O)N1CCN(c2nc(OCCc3ncccn3)nc3c(F)c(-c4c(O)cccc4F)c(Cl)cc23)C[C@H]1C (atropisomer, axis not shown) [Compound 267, 1-((R)-4-(6-chloro-8-fluoro-7-((R)-2-fluoro-6-hydroxyphenyl)-2-(2-(pyrimidin-2-yl)ethoxy)quinazolin-4-yl)-2-methylpiperazin-1-yl)prop-2-en-1-one]",+ (+ indicates binding activity greater than 0% and up to 50%)
11,"C=CC(=O)N1C[C@H](C)N(c2nc(OCCCN3CC(F)(F)C3)nc3c(F)c(-c4cc(O)cc5ccccc45)c(Cl)cc23)C[C@H]1C [Compound 247, 1-((2R,5S)-4-(6-chloro-2-(3-(3,3-difluoroazetidin-1-yl)propoxy)-8-fluoro-7-(3-hydroxynaphthalen-1-yl)quinazolin-4-yl)-2,5-dimethylpiperazin-1-yl)prop-2-en-1-one]",+ (+ indicates binding activity greater than 0% and up to 50%)
12,"C=CC(=O)N1C[C@H](C)N(c2nc(N3CC(N(C)C)C3)nc3c(F)c(-c4c(C)ccc5[nH]nc(C)c45)c(Cl)cc23)C[C@H]1C [Compound 252, 1-((2R,5S)-4-(6-chloro-7-(3,5-dimethyl-1H-indazol-4-yl)-2-(3-(dimethylamino)azetidin-1-yl)-8-fluoroquinazolin-4-yl)-2,5-dimethylpiperazin-1-yl)prop-2-en-1-one]",+++ (+++ indicates binding activity greater than 90%)
13,"C=CC(=O)N1CCN(c2nc(N3CC(N(C)C)C3)nc3c(F)c(-c4c(O)cccc4F)c(C(F)(F)F)cc23)C[C@H]1C (atropisomer, axis not shown) [Compound 271, 1-((R)-4-(2-(3-(dimethylamino)azetidin-1-yl)-8-fluoro-7-((S)-2-fluoro-6-hydroxyphenyl)-6-(trifluoromethyl)quinazolin-4-yl)-2-methylpiperazin-1-yl)prop-2-en-1-one]",+ (+ indicates binding activity greater than 0% and up to 50%)
14,"C=CC(=O)N1CCN(c2nc(OCCc3ncccn3)nc3c(F)c(-c4c(O)cccc4F)c(Cl)cc23)C[C@H]1C (atropisomer, axis not shown) [Compound 268, 1-((R)-4-(6-chloro-8-fluoro-7-((S)-2-fluoro-6-hydroxyphenyl)-2-(2-(pyrimidin-2-yl)ethoxy)quinazolin-4-yl)-2-methylpiperazin-1-yl)prop-2-en-1-one]",+++ (+++ indicates binding activity greater than 90%)
